# Assay results published in US20070185161A1, “Bicyclic substituted indole-derivative steroid hormone nuclear receptor modulators” (priority 2004, published 2007).
# Biological target: T1, human MR (Homo sapiens, UniProt P08235)
# T1 construct: The full length human MR gene is cloned from a human kidney or human brain cDNA library; made in house; host or cells: SF9 insect cells (baculovirus)
# T1 sequence (P08235 1-984): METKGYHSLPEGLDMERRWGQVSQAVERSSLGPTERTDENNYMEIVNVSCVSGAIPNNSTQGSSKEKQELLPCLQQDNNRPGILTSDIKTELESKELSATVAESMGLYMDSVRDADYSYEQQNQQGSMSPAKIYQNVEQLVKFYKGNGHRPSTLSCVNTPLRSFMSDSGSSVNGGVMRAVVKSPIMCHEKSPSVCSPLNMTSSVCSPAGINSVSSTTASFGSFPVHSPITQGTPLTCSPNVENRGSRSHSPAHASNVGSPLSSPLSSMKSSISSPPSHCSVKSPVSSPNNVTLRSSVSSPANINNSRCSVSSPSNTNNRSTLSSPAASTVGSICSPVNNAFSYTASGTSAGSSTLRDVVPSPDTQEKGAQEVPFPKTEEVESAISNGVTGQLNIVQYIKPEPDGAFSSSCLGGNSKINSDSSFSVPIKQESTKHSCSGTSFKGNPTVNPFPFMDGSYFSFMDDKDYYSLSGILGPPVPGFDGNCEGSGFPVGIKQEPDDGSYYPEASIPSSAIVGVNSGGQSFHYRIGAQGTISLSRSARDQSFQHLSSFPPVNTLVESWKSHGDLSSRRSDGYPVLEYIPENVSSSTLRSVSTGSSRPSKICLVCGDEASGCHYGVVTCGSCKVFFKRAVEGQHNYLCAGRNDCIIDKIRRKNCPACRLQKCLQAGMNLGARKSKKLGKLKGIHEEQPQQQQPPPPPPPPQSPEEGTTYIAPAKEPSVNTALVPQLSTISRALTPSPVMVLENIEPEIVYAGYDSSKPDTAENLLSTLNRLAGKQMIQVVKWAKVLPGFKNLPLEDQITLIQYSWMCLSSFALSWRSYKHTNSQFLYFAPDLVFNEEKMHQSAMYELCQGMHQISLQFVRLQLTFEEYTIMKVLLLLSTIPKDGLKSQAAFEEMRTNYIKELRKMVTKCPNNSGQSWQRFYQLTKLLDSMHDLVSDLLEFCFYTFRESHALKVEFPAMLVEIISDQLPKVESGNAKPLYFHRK
# Test: Mineralocorticoid Receptor Binding Assay (Method 1)
# Conditions: [3H]-aldosterone, racemic mixture unless otherwise indicated
# Description: The full length human MR gene is cloned from a human kidney or human brain cDNA library. Briefly, using synthetic oligonucleotide primers (Eli Lilly and Company, Indianapolis) directed to nucleotides 20-54 and 3700-3666 of the human MR, polymerase chain reaction (PCR) is performed under standard conditions using a human cDNA library. The PCR reaction is performed in a final volume of 50 μl containing about 1 μl of a 50× stock solution of polymerase; about 1 μl of a 50× stock solution of dNTP; about 5 μl of an appropriate PCR buffer; about 1 μl of each primer; about 5 μl of a H. kidney or H. brain cDNA library; and about 36 μl of water. The reaction is allowed to denature for about 30 seconds at 95 degrees Celsius, anneal for about 30 seconds at 55 degrees Celsius, and extend for about 5 minutes at 72 degrees Celsius, the sequence being repeated for a total of about 35 cycles. The desired PCR product (3.68 Kb) is confirmed by gel electrophoresis and subsequently cut from the gel and stored at about −20 degrees Celsius until extraction. To extract the cDNA product from the agarose gel, the QIAEX II Gel Extraction protocol (QIAGEN, Inc.) is employed according to the manufacturer's instructions. Following extraction, the MR cDNA is cloned into an appropriate cloning vector (Zero Blunt TOPO PCR Cloning Kit (Invitrogen, Inc.) and a pAcHLT-baculovirus transfer vector (B.D./Pharminogen), then expressed in SF9 insect cells, essentially according to manufacturer's instructions. Sf9 cells are grown at a scale where gram quantity cell pellets are obtained for subsequent use in the MR binding assay. Harvested cell pellets are lysed by repeated freeze-thaw cycles (about 4) in a suitable lysis buffer then centrifuged at about 1×10^3 G (with the supernatant being saved for future assays).
# MR binding assays are performed in a final total volume of about 250 μl containing about 20-25 μg of protein and 0.5 nM of [^3H]-aldosterone plus varying concentrations of test compound or vehicle. The assay binding buffer consists of 30 mM sodium molybdate, 30 mM of TRIS-HCl, 5 mM sodium phosphate, 5 mM sodium pyrophosphate, and about 10% glycerol, pH=7.5.
# Briefly, assays are prepared at RT in 96-well Falcon 3072 plates, each well containing 210 μl of binding buffer, 10 μl of [^3H]-aldosterone, 10 μl of test compound/vehicle, and 20 μl of the resuspended receptor protein extract. Incubations are carried out at 4 degrees Celsius with shaking for about 16 hours. 200 μl aliquots of each incubation are filtered onto Millipore HA 0.45 micron 96-well filter plates, pre-moistened with cold 30 mM TRIS-HCl. The filter plates are suctioned dry with vacuum and immediately washed 3× with cold 30 mM TRIS-HCl. The plates are then punched out and the amount of receptor-ligand complex is determined by liquid scintillation counting using 4 ml of Ready Protein Plus™ liquid scintillation cocktail.
# IC50 values (defined as the concentration of test compound required to decrease [^3H]-aldosterone binding by 50%) are then determined. Ki values for each respective test compound can then be calculated by application of the Cheng-Prusoff equation as described in Cheng et al., Relationship Between The Inhibition Constant (Ki) and The Concentration of Inhibitor Which Causes 50% Inhibition (IC50) of an Enzymatic Reaction, Biochem. Pharmacol., 22: 3099-31088; (1973).
row,Compound,Ki [nM]
1,"CCC1(c2c[nH]c3c(NS(C)(=O)=O)cccc23)CCc2cc(F)ccc21 (racemic) [Example 1, N-[3-(1-ethyl-5-fluoro-indan-1-yl)-1H-indol-7-yl]-methanesulfonamide]",≤ 500
2,"CC1(c2c[nH]c3c(NS(C)(=O)=O)cccc23)CCc2cc(F)ccc21 (racemic) [Example 21, N-[3-(5-Fluoro-1-methyl-indan-1-yl)-1H-indol-7-yl]-methanesulfonamide]",≤ 500
3,"CC1(c2c[nH]c3c(NS(C)(=O)=O)cccc23)CCc2cc(F)cc(F)c21 (racemic) [Example 22, N-[3-(5,7-Difluoro-1-methyl-indan-1-yl)-1H-indol-7-yl]-methanesulfonamide]",≤ 500
4,"CCC1(c2c[nH]c3c(NS(C)(=O)=O)cccc23)CCc2cc(F)cc(F)c21 (racemic) [Example 23, N-[3-(1-Ethyl-5,7-difluoro-indan-1-yl)-1H-indol-7-yl]-methanesulfonamide]",≤ 500
5,"CC1(c2c[nH]c3c(NS(C)(=O)=O)cccc23)CCCc2cc(F)ccc21 (racemic) [Example 28, N-[3-(6-Fluoro-1-methyl-1,2,3,4-tetrahydro-naphthalen-1-yl)-1H-indol-7-yl]-methanesulfonamide]",≤ 500
6,"CCC1(c2c[nH]c3c(NS(C)(=O)=O)cccc23)CCCc2cc(F)ccc21 (racemic) [Example 29, N-[3-(1-Ethyl-6-fluoro-1,2,3,4-tetrahydro-naphthalen-1-yl)-1H-indol-7-yl]-methanesulfonamide]",≤ 500
7,"CCC1(c2c[nH]c3c(NS(C)(=O)=O)cccc23)CCCc2cc(F)cc(F)c21 (racemic) [Example 31, N-[3-(1-Ethyl-6,8-difluoro-1,2,3,4-tetrahydro-naphthalen-1-yl)-1H-indol-7-yl]-methanesulfonamide]",≤ 500
8,"CC1(c2c[nH]c3c(NS(C)(=O)=O)cccc23)CCOc2cc(F)ccc21 (racemic) [Example 34, N-[3-(7-Fluoro-4-methyl-chroman-4-yl)-1H-indol-7-yl]-methanesulfonamide]",≤ 500
9,"CCC1(c2c[nH]c3c(NS(C)(=O)=O)cccc23)CCOc2cc(F)ccc21 (racemic) [Example 35, N-[3-(4-Ethyl-7-fluoro-chroman-4-yl)-1H-indol-7-yl]-methanesulfonamide]",≤ 500
10,"CCC1(c2c[nH]c3c(NS(C)(=O)=O)cccc23)CCOc2cc(F)cc(F)c21 (racemic) [Example 36, N-[3-(4-Ethyl-5,7-difluoro-chroman-4-yl)-1H-indol-7-yl]-methanesulfonamide]",≤ 500
11,"CS(=O)(=O)Nc1cccc2c(C3(C4CC4)CCc4cc(F)ccc43)c[nH]c12 (racemic) [Example 39, N-[3-(1-Cyclopropyl-5-fluoro-indan-1-yl)-1H-indol-7-yl]-methanesulfonamide]",≤ 500
12,"CS(=O)(=O)Nc1cccc2c(C3(CCCO)CCc4cc(F)ccc43)c[nH]c12 (racemic) [Example 40, N-{3-[5-Fluoro-1-(3-hydroxy-propyl)-indan-1-yl]-1H-indol-7-yl}-methanesulfonamide]",≤ 500
13,"CCC1(c2c[nH]c3c(NS(C)(=O)=O)cccc23)CCc2cc(F)ccc21 (single isomer, unassigned) [Example 1A, N-[3-(1-ethyl-5-fluoro-indan-1-yl)-1H-indol-7-yl]-methanesulfonamide]",≤ 500
14,"CC1(c2c[nH]c3c(NS(C)(=O)=O)cccc23)CCc2cc(F)ccc21 (single isomer, unassigned) [Example 21A, N-[3-(5-Fluoro-1-methyl-indan-1-yl)-1H-indol-7-yl]-methanesulfonamide]",≤ 500
15,"CC1(c2c[nH]c3c(NS(C)(=O)=O)cccc23)CCc2cc(F)ccc21 (single isomer, unassigned) [Example 21B, N-[3-(5-Fluoro-1-methyl-indan-1-yl)-1H-indol-7-yl]-methanesulfonamide]",≤ 500
16,"CC1(c2c[nH]c3c(NS(C)(=O)=O)cccc23)CCc2cc(F)cc(F)c21 (single isomer, unassigned) [Example 22A, N-[3-(5,7-Difluoro-1-methyl-indan-1-yl)-1H-indol-7-yl]-methanesulfonamide]",≤ 500
17,"CC1(c2c[nH]c3c(NS(C)(=O)=O)cccc23)CCc2cc(F)cc(F)c21 (single isomer, unassigned) [Example 22B, N-[3-(5,7-Difluoro-1-methyl-indan-1-yl)-1H-indol-7-yl]-methanesulfonamide]",≤ 500
18,"CCC1(c2c[nH]c3c(NS(C)(=O)=O)cccc23)CCc2cc(F)cc(F)c21 (single isomer, unassigned) [Example 23A, N-[3-(1-Ethyl-5,7-difluoro-indan-1-yl)-1H-indol-7-yl]-methanesulfonamide]",≤ 500
19,"CCC1(c2c[nH]c3c(NS(C)(=O)=O)cccc23)CCc2cc(F)cc(F)c21 (single isomer, unassigned) [Example 23B, N-[3-(1-Ethyl-5,7-difluoro-indan-1-yl)-1H-indol-7-yl]-methanesulfonamide]",≤ 500
20,"CC1(c2c[nH]c3c(NS(C)(=O)=O)cccc23)CCCc2cc(F)ccc21 (single isomer, unassigned) [Example 28A, N-[3-(6-Fluoro-1-methyl-1,2,3,4-tetrahydro-naphthalen-1-yl)-1H-indol-7-yl]-methanesulfonamide]",≤ 500
21,"CC1(c2c[nH]c3c(NS(C)(=O)=O)cccc23)CCCc2cc(F)ccc21 (single isomer, unassigned) [Example 28B, N-[3-(6-Fluoro-1-methyl-1,2,3,4-tetrahydro-naphthalen-1-yl)-1H-indol-7-yl]-methanesulfonamide]",≤ 500
22,"CCC1(c2c[nH]c3c(NS(C)(=O)=O)cccc23)CCCc2cc(F)ccc21 (single isomer, unassigned) [Example 29A, N-[3-(1-Ethyl-6-fluoro-1,2,3,4-tetrahydro-naphthalen-1-yl)-1H-indol-7-yl]-methanesulfonamide]",≤ 500
23,"CCC1(c2c[nH]c3c(NS(C)(=O)=O)cccc23)CCCc2cc(F)ccc21 (single isomer, unassigned) [Example 29B, N-[3-(1-Ethyl-6-fluoro-1,2,3,4-tetrahydro-naphthalen-1-yl)-1H-indol-7-yl]-methanesulfonamide]",≤ 500
24,"CC1(c2c[nH]c3c(NS(C)(=O)=O)cccc23)CCOc2cc(F)ccc21 (single isomer, unassigned) [Example 34A, N-[3-(7-Fluoro-4-methyl-chroman-4-yl)-1H-indol-7-yl]-methanesulfonamide]",≤ 500
